Measurements from patent US20170305922A1, “CARM1 INHIBITORS AND USES THEREOF” (Epizyme, Inc., priority 2014, published 2017).
pIC50: −log10 of the molar value.

Columns and labels:
[1] = biological target: T1, Human CARM1 (PRMT4) (Homo sapiens, UniProt Q86X55); assay: CARM1 enzyme assay on peptide substrates (3H-SAM Flashplate); conditions: Biochemical assay; CARM1 0.25 nM, 3H-SAM 30 nM, peptide 250 nM; read-out: Biochem IC50
T1 construct: Flag-CARM1-His was eluted with 200 ug/ml FLAG peptide in buffer A; made in house; host or cells: HEK 293F cells infected with recombinant baculovirus (pFastBacMam)
T1 sequence (Q86X55 1-585 isoform Q86X55-1): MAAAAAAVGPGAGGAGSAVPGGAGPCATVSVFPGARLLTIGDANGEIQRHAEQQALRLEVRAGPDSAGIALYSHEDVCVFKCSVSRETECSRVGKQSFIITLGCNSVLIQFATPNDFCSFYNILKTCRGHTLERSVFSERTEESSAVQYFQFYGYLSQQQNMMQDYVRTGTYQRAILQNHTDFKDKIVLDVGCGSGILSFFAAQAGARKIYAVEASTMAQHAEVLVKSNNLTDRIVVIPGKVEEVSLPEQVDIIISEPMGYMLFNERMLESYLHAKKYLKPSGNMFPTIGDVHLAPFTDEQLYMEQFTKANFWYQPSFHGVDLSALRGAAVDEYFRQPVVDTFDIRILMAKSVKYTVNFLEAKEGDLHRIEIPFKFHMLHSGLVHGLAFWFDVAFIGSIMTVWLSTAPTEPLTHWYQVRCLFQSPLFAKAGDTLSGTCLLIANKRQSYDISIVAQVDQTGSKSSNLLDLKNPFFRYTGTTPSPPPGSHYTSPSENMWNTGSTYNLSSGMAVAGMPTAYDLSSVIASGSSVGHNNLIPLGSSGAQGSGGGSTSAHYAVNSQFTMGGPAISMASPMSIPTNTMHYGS

[2] = test system: asymmetric di-methyl PABP1 in RKO cells; assay: RKO methylation assay: In Cell Western (ICW) for asymmetric di-methyl PABP1 (PABP1me2a); conditions: Homo sapiens, RKO, 48 h, Cellular-based (PABP1me2a) ICW (In Cell Western) assay
Summary of the method: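 In-cell western on compound-exposed RKO cells (48 hours): asymmetric di-methyl PABP1 detected by antibody at 800 nm, DNA content by DRAQ5 at 700 nm. Percent inhibition from signal ratios against DMSO (minimum) and 20 μM reference compound (maximum) wells; IC50 curves fitted from triplicates.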

| Compound | pIC50 [1] | pIC50 [2] |
| --- | --- | --- |
| CNC[C@@H](O)COc1ccc(Cl)c(-c2nc(-c3c(C)noc3C)c(C)c(N3CC4(CCCN(C(=O)OCC(F)F)C4)C3)n2)c1 [Example 302] | 8.29 | 7.15 |
| CC[C@H]1CN(c2nc(-c3cc(OC[C@H](O)CNC)ccc3Cl)nc(-c3c(C)noc3C)c2C)CCN1CC(F)F [Example 225] | 8.03 | 6.35 |
| CNC[C@@H](O)COc1ccc(Cl)c(-c2nc(-c3c(C)noc3C)c(C)c(N3CC4(CC(C(=O)N5CC(OC)C5)C4)C3)n2)c1 [Example 162] | 8.16 | 6.26 |
| CNC[C@@H](O)COc1ccc(Cl)c(-c2nc(-c3c(C)noc3C)c(C)c(N3CC4(C3)CC(OC)(C(F)F)C4)n2)c1 [Example 217] | 8.33 | 7.00 |
| CNC[C@@H](O)COc1ccc(Cl)c(-c2nc(-c3c(C)noc3C)c(C)c(N3CCN(CC(F)F)CC3)n2)c1 [Example 224] | 8.17 | 6.48 |
| CNC[C@@H](O)COc1ccc(Cl)c(-c2nc(-c3c(C)noc3C)c(C)c(N3C[C@H]4C[C@@H]3CN4CC(F)F)n2)c1 [Example 131] | 8.05 | 6.21 |
| CNC[C@@H](O)COc1ccc(Cl)c(-c2nc(/C=C(\OC)C3CCN(C(=O)OC)CC3)c(C)c(-c3c(C)noc3C)n2)c1 [Example 95] | 7.95 | 6.00 |
| CNC[C@@H](O)COc1ccc(Cl)c(-c2nc(-c3c(C)noc3C)c(C)c(N3CC4(CCN4CC(F)(F)F)C3)n2)c1 [Example 100] | 7.95 | 7.17 |
| CNC[C@@H](O)COc1ccc(Cl)c(-c2nc(-c3c(C)noc3C)c(C)c(N3CC4(C3)CN(S(C)(=O)=O)C4)n2)c1 [Example 42] | 7.98 | 6.39 |
| CNC[C@@H](O)COc1ccc(Cl)c(-c2nc(-c3c(C)noc3C)c(C)c(N3Cc4cnn(C(CO)CO)c4C3)n2)c1 [Example 115] | 8.00 | 5.04 |
| CNC[C@@H](O)COc1ccc(Cl)c(-c2nc(-c3c(C)noc3C)c(C)c(N3CC4(CC(N5CCOCC5)C4)C3)n2)c1 [Example 270] | 8.31 | 6.57 |
| CNC[C@@H](O)COc1ccc(C(F)(F)F)c(-c2nc(-c3c(C)noc3C)c(C)c(N3CC4(CCOCC4)C3)n2)c1 [Example 21] | 7.78 | 6.75 |
| CNC[C@@H](O)COc1ccc(Cl)c(-c2nc(-c3c(C)noc3C)c(C)c(N3CC4(CCN(C5COC5)C4)C3)n2)c1 [Example 50] | 8.06 | 6.81 |
| CNC[C@@H](O)COc1ccc(Cl)c(-c2nc(-c3c(C)noc3C)c(C)c(N3C[C@]4(C)CN(CC(F)F)C[C@]4(C)C3)n2)c1 [Example 71] | 8.25 | 6.66 |

Now from value to compound:

| pIC50 [1] | pIC50 [2] | Compound |
| --- | --- | --- |
| 8.85 | 7.14 | CNC[C@@H](O)COc1ccc(Cl)c(-c2nc(-c3c(Cl)cnn3C)c(C)c(N3Cc4cccnc4C3)n2)c1 [Example 58] |
| 8.55 | 6.41 | CNC[C@@H](O)COc1ccc(Cl)c(-c2nc(-c3c(C)noc3C)c(C)c(N3Cc4nc5n(c(=O)c4C3)CCC5)n2)c1 [Example 40] |
| 8.65 | 7.21 | CNC[C@@H](O)COc1ccc(Cl)c(-c2nc(-c3c(C)noc3C)c(C)c(N3Cc4ccc(OCC(F)F)nc4C3)n2)c1 [Example 273] |
| 8.34 | 6.87 | CCc1noc(C)c1-c1nc(-c2cc(OC[C@H](O)CNC)ccc2Cl)nc(N2Cc3cccnc3C2)c1C [Example 226] |
| 8.74 | 7.20 | CNC[C@@H](O)COc1ccc(Cl)c(-c2nc(-c3c(C)noc3C)c(C)c(N3Cc4nccc(OC)c4C3)n2)c1 [Example 236] |
| 8.64 | 6.85 | CNC[C@@H](O)COc1ccc(Cl)c(-c2nc(-c3c(C)c(C#N)nn3C)c(C)c(N3Cc4cncnc4C3)n2)c1 [Example 346] |
| 8.70 | 7.57 | CNC[C@@H](O)COc1ccc(Cl)c(-c2nc(-c3c(C)noc3C)c(C)c(N3Cc4ccc(OCCOC)nc4C3)n2)c1 [Example 249] |
| 8.63 | 7.41 | CNC[C@@H](O)COc1ccc(Cl)c(-c2nc(-c3c(C)c(Br)nn3C)c(C)c(N3CC4(CN(CC(F)F)C4)C3)n2)c1 [Example 284] |
| 8.35 | 7.57 | CNC[C@@H](O)COc1ccc(Cl)c(-c2nc(-c3c(C)noc3C)c(C)c(N3Cc4cc(C)nc(C)c4C3)n2)c1 [Example 102] |
| 8.61 | 7.19 | CNC[C@@H](O)COc1ccc(Cl)c(-c2nc(-c3c(C)c(Br)nn3C)c(C)c(N3CC4(CC(C#N)C4)C3)n2)c1 [Example 333] |
